Like-named read-outs stand apart in the source and are kept apart here.

Drawing on patent publication US10280159B2 (AbbVie Deutschland GmbH & Co. KG, priority 2015, dated 2019), this text covers EC50 for 28 compounds.

Holding throughout (type): cell-based
Assay [1] has as its target T1, human S1PR1 (Homo sapiens, UniProt P21453).
T1 construct: host or cells: CHO-K1
The assay is described as follows: Intracellular Ca2+ release (FLIPR) agonist potency, S1P1. An outline of the steps: (§1)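 Recombinant CHO-K1 cells carrying the human receptor together with aequorin and the chimeric G protein Gq/i5 are exposed to test agonist, and Ca2+ mobilization is recorded by fluorometric imaging plate reader. Potency is derived from curve fitting relative to phospho-fingolimod.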

Assay [2] deals with T2, human S1PR4 (Homo sapiens, UniProt O95977).
T2 construct: host or cells: CHO-K1
T2 sequence (O95977 1-384): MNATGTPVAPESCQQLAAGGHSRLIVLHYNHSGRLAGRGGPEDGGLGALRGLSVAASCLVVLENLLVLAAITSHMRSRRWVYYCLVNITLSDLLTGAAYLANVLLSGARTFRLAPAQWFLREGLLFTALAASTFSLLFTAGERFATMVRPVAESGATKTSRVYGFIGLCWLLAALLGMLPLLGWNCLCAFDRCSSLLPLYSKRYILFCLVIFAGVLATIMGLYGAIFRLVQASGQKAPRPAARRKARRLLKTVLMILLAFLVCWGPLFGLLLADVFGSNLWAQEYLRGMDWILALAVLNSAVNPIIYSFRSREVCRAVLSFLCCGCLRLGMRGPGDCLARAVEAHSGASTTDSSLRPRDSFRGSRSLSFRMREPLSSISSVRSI
Put plainly: Intracellular Ca2+ release (FLIPR) agonist potency, S1P4. An outline of the steps: as §1

The target of assay [3] is T3, human S1PR5 (Homo sapiens, UniProt Q9H228).
T3 construct: host or cells: CHO-K1
The assay is described as follows: Intracellular Ca2+ release (FLIPR) agonist potency, S1P5. The note with it: recombinant CHO-K1 cells expressing human S1PR5, aequorin, Gq/i5, Calcium 5 FLIPR. An outline of the steps: as §1

[4] abbreviates: recombinant CHO-K1 cells expressing human S1PR1, aequorin, Gq/i5, Calcium 5 FLIPR, read-out: S1P1 EC50.
Where [5] appears, read: recombinant CHO-K1 cells expressing human S1PR4, aequorin, Gq/i5, Calcium 5 FLIPR, read-out: S1P4 EC50.

T3 sequence (Q9H228 whole entry): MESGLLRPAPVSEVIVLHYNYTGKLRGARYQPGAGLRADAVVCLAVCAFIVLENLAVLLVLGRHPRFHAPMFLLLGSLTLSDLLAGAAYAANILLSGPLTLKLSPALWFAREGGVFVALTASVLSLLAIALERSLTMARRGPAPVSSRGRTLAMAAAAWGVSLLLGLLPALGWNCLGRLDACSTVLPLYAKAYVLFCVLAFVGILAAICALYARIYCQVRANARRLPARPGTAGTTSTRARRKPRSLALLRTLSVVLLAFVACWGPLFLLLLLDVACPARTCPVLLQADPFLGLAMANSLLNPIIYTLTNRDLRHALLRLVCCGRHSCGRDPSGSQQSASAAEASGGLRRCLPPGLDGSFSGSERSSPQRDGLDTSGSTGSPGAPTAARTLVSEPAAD
T1 sequence (P21453 whole entry): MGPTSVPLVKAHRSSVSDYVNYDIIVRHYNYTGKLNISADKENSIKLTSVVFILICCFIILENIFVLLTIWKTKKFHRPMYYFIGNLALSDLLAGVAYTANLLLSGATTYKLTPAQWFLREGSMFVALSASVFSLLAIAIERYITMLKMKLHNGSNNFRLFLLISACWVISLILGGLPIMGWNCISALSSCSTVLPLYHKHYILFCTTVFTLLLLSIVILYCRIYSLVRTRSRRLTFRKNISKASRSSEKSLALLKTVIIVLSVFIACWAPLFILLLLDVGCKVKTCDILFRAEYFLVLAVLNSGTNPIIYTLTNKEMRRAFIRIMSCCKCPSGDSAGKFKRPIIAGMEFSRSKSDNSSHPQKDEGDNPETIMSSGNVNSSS

With `CCc1cccc(Cl)c1COc1ccc2c(c1)OCC(NC13CC(C(=O)O)(C1)C3)C2` (stereo not drawn) [Compound 121, 3-((7-((2-chloro-6-ethylbenzyl)oxy)chroman-3-yl)amino)bicyclo[1.1.1]pentane-1-carboxylic acid], the EC50 (as a rule, the concentration at which the effect is half-maximal) in assay [1] (setting [4]) is greater than 1000 nM; in assay [2] (setting [5]), less than 1000 nM; in assay [3] (read-out: S1P5 EC50 range), 100 to 1000 nM.
With `CCc1cccc(F)c1COc1ccc2c(c1)OCC(NC13CC(C(=O)O)(C1)C3)C2` (stereo not drawn) [Compound 122, 3-((7-((2-ethyl-6-fluorobenzyl)oxy)chroman-3-yl)amino)bicyclo[1.1.1]pentane-1-carboxylic acid], the concentration giving a half-maximal response (EC50) is greater than 1000 nM in assay [1] (setting [4]), less than 1000 nM in assay [2] (setting [5]) and 10 to 100 nM in assay [3] (read-out: S1P5 EC50 range).
Turning to `CCc1cccc(Cl)c1COc1ccc2c(c1)OCC(N(C)CC(=O)O)C2` (stereo not drawn) [Compound 124, N-(7-((2-chloro-6-ethylbenzyl)oxy)chroman-3-yl)-N-methylglycine], the EC50 is greater than 1000 nM in assay [1] (setting [4]), less than 1000 nM in assay [2] (setting [5]) and less than 10 nM in assay [3] (read-out: S1P5 EC50 range).
As for `CCc1cccc(Cl)c1COc1ccc2c(c1)OCC(N1CCC(CC(=O)O)C1)C2` (stereo not drawn) [Compound 125, 2-(1-(7-((2-chloro-6-ethylbenzyl)oxy)chroman-3-yl)pyrrolidin-3-yl)acetic acid], the results for the EC50 in assay [1] (setting [4]), in assay [2] (setting [5]) and in assay [3] (read-out: S1P5 EC50 range) were greater than 1000 nM, less than 1000 nM and less than 10 nM, respectively.
For the compound `CCc1cccc(F)c1COc1ccc2c(c1)OCC(NCC(=O)O)C2` (stereo not drawn) [Compound 126, (7-((2-ethyl-6-fluorobenzyl)oxy)chroman-3-yl)glycine], the EC50 in assay [1] (setting [4]) is greater than 1000 nM; in assay [2] (setting [5]), less than 1000 nM; in assay [3] (read-out: S1P5 EC50 range), less than 10 nM.
For `CCc1cccc(F)c1COc1ccc2c(c1)OCC(N1CCC(C(=O)O)C1)C2` (stereo not drawn) [Compound 127, 1-(7-((2-ethyl-6-fluorobenzyl)oxy)chroman-3-yl)pyrrolidine-3-carboxylic acid], the results for the EC50 in assay [1] (setting [4]), in assay [2] (setting [5]) and in assay [3] (read-out: S1P5 EC50 range) were greater than 1000 nM, less than 1000 nM and less than 10 nM, respectively.
Regarding `CCc1cccc(Cl)c1COc1ccc2c(c1)OCC(N1CCC(C(=O)O)C1)C2` (stereo not drawn) [Compound 128, 1-(7-((2-chloro-6-ethylbenzyl)oxy)chroman-3-yl)pyrrolidine-3-carboxylic acid], the figures for the EC50 in assay [1] (setting [4]), in assay [2] (setting [5]) and in assay [3] (read-out: S1P5 EC50 range) were greater than 1000 nM, less than 1000 nM and less than 10 nM, respectively.
`CCc1cccc(F)c1COc1ccc2c(c1)OCC(NC1(CC(=O)O)CC1)C2` (stereo not drawn) [Compound 129, 2-(1-((7-((2-ethyl-6-fluorobenzyl)oxy)chroman-3-yl)amino)cyclopropyl) acetic acid]: the figures for the EC50 in assay [1] (setting [4]), in assay [2] (setting [5]) and in assay [3] (read-out: S1P5 EC50 range) were greater than 1000 nM, greater than 1000 nM and less than 10 nM, respectively.
On to `CCc1cccc(F)c1COc1ccc2c(c1)OCC(N1CCC(CC(=O)O)C1)C2` (stereo not drawn) [Compound 130, 2-(1-(7-((2-ethyl-6-fluorobenzyl)oxy)chroman-3-yl)pyrrolidin-3-yl)acetic acid], for which the EC50 in assay [1] (setting [4]) is greater than 1000 nM; in assay [2] (setting [5]), less than 1000 nM; in assay [3] (read-out: S1P5 EC50 range), less than 10 nM.
Turning to `O=C(O)CNC1COc2cc(-c3ccc(OCc4cccc(F)c4F)cc3)ccc2C1` (stereo not drawn) [Compound 131, (7-(4-((2,3-difluorobenzyl)oxy)phenyl)chroman-3-yl)glycine], the figures for the EC50 in assay [1] (setting [4]), in assay [2] (setting [5]) and in assay [3] (read-out: S1P5 EC50 range) were less than 1000 nM, greater than 1000 nM and less than 10 nM, respectively.
For the compound `O=C(O)CNC1COc2cc(OCc3ccc(OCc4cccc(Cl)c4)cc3)ccc2C1` (stereo not drawn) [Compound 132, (7-((4-((3-chlorobenzyl)oxy)benzyl)oxy)chroman-3-yl)glycine], the EC50 is greater than 1000 nM in assay [1] (setting [4]), greater than 1000 nM in assay [2] (setting [5]) and less than 10 nM in assay [3] (read-out: S1P5 EC50 range).
In the case of `CN(CC(=O)O)C1COc2cc(OCc3ccc(OCc4cccc(F)c4F)cc3)ccc2C1` (stereo not drawn) [Compound 133, N-(7-((4-((2,3-difluorobenzyl)oxy)benzyl)oxy)chroman-3-yl)-N-methylglycine], the values for the EC50 in assay [1] (setting [4]), in assay [2] (setting [5]) and in assay [3] (read-out: S1P5 EC50 range) were less than 1000 nM, greater than 1000 nM and less than 10 nM, respectively.
On the same counts, the results for `CN(CC(=O)O)C1COc2cc(OCc3ccc(OCc4cccc(Cl)c4)cc3)ccc2C1` (stereo not drawn) [Compound 134, N-(7-((4-((3-chlorobenzyl)oxy)benzyl)oxy)chroman-3-yl)-N-methylglycine] are greater than 1000 nM, greater than 1000 nM and less than 10 nM.
On the same counts, the results for `CN(CC(=O)O)C1COc2cc(OCc3ccc(OCc4ccc(Cl)cc4)cc3)ccc2C1` (stereo not drawn) [Compound 135, N-(7-((4-((4-chlorobenzyl)oxy)benzyl)oxy)chroman-3-yl)-N-methylglycine] are greater than 1000 nM, greater than 1000 nM and 10 to 100 nM.
In the case of `CCc1cccc(F)c1COc1ccc2c(c1)OC[C@@H](NCc1cc(O)no1)C2` [Compound 136, (S)-5-(((7-((2-ethyl-6-fluorobenzyl)oxy)chroman-3-yl)amino)methyl)isoxazol-3-ol], the EC50 in assay [1] is greater than 1000 nM; in assay [2], less than 1000 nM; in assay [3] (S1P5 EC50 range), less than 10 nM.
Regarding `CC1(C(=O)O)CN([C@@H]2COc3cc(OCc4c(Cl)cccc4Cl)ccc3C2)C1` [Compound 138, (S)-1-(7-((2,6-dichlorobenzyl)oxy)chroman-3-yl)-3-methylazetidine-3-carboxylic acid], the EC50 in assay [1] (setting [4]) was greater than 1000 nM; in assay [2] (setting [5]), greater than 1000 nM; in assay [3] (read-out: S1P5 EC50 range), less than 10 nM.
With `CCc1cccc(F)c1COc1ccc2c(c1)OC[C@@H](N1CC(C)(C(=O)O)C1)C2` [Compound 139, (S)-1-(7-((2-ethyl-6-fluorobenzyl)oxy)chroman-3-yl)-3-methylazetidine-3-carboxylic acid], the values for the EC50 in assay [1] (setting [4]), in assay [2] (setting [5]) and in assay [3] (read-out: S1P5 EC50 range) were greater than 1000 nM, less than 1000 nM and less than 10 nM, respectively.
On the same counts, the results for `CCC1(C(=O)O)CN([C@@H]2COc3cc(OCc4c(Cl)cccc4Cl)ccc3C2)C1` [Compound 140, (S)-1-(7-((2,6-dichlorobenzyl)oxy)chroman-3-yl)-3-ethylazetidine-3-carboxylic acid] are greater than 1000 nM, greater than 1000 nM and 1000 to 10000 nM.
With `CCCC1(C(=O)O)CN([C@@H]2COc3cc(OCc4c(Cl)cccc4Cl)ccc3C2)C1` [Compound 141, (S)-1-(7-((2,6-dichlorobenzyl)oxy)chroman-3-yl)-3-propylazetidine-3-carboxylic acid], the EC50 in assay [1] (setting [4]) is greater than 1000 nM; in assay [2] (setting [5]), greater than 1000 nM; in assay [3] (read-out: S1P5 EC50 range), 1000 to 10000 nM.
In the case of `CCc1cccc(Cl)c1COc1ccc2c(c1)CCC(OCC(=O)O)C2` (stereo not drawn) [Compound 142], the figures for the EC50 in assay [1] (setting [4]), in assay [2] (setting [5]) and in assay [3] (read-out: S1P5 EC50 range) were greater than 1000 nM, greater than 1000 nM and less than 10 nM, respectively.
As for `O=C(O)COC1CCc2cc(OCc3c(Cl)cccc3C3CC3)ccc2C1` (stereo not drawn) [Compound 143, 2-((6-((2-chloro-6-cyclopropylbenzyl)oxy)-1,2,3,4-tetrahydronaphthalen-2-yl)oxy)acetic acid], the figures for the EC50 in assay [1] (setting [4]), in assay [2] (setting [5]) and in assay [3] (read-out: S1P5 EC50 range) were greater than 1000 nM, greater than 1000 nM and less than 10 nM, respectively.
For `CCCc1ccc(COc2ccc3c(c2)OCC(N2CC(C(=O)O)C2)C3)c(OC)c1` (stereo not drawn) [Compound 148, 1-(7-((2-methoxy-4-propylbenzyl)oxy)chroman-3-yl)azetidine-3-carboxylic acid], the 50% effective concentration (EC50) is greater than 1000 nM in assay [1] (setting [4]), greater than 1000 nM in assay [2] (setting [5]) and 1000 to 10000 nM in assay [3] (read-out: S1P5 EC50 range).
Turning to `Cc1ccc(F)c(COc2ccc3c(c2)CCC(OCC(=O)O)C3)c1F` (stereo not drawn) [Compound 149, 2-[6-[(2,6-difluoro-3-methyl-phenyl)methoxy]tetralin-2-yl]oxyacetic acid], the EC50 in assay [1] (setting [4]) was greater than 1000 nM; in assay [2] (setting [5]), greater than 1000 nM; in assay [3] (read-out: S1P5 EC50 range), 1000 to 10000 nM.
Regarding `Cc1ccc(Cl)c(COc2ccc3c(c2)CCC(OCC(=O)O)C3)c1F` (stereo not drawn) [Compound 150, 2-[6-[(6-chloro-2-fluoro-3-methyl-phenyl)methoxy]tetralin-2-yl]oxyacetic acid], the EC50 was greater than 1000 nM in assay [1] (setting [4]), greater than 1000 nM in assay [2] (setting [5]) and 1000 to 10000 nM in assay [3] (read-out: S1P5 EC50 range).
On to `O=C(O)COC1CCc2cc(OCc3cc(C(F)(F)F)ccc3Cl)ccc2C1` (stereo not drawn) [Compound 151, 2-[6-[[2-chloro-5-(trifluoromethyl)phenyl]methoxy]tetralin-2-yl]oxyacetic acid], for which the EC50 in assay [1] (setting [4]) was greater than 1000 nM; in assay [2] (setting [5]), greater than 1000 nM; in assay [3] (read-out: S1P5 EC50 range) it was 1000 to 10000 nM.
Take `COc1cccc(COc2ccc3c(c2)CCC(OCC(=O)O)C3)c1` (stereo not drawn) [Compound 154, 2-[6-[(3-methoxyphenyl)methoxy]tetralin-2-yl]oxyacetic acid]: the EC50 in assay [1] (setting [4]) is greater than 1000 nM; in assay [2] (setting [5]) it was greater than 1000 nM; in assay [3] (read-out: S1P5 EC50 range), 1000 to 10000 nM.
For `Cc1ccc(F)cc1COc1ccc2c(c1)CCC(OCC(=O)O)C2` (stereo not drawn) [Compound 155, 2-[6-[(5-fluoro-2-methyl-phenyl)methoxy]tetralin-2-yl]oxyacetic acid], the EC50 in assay [1] (setting [4]) is greater than 1000 nM; in assay [2] (setting [5]) it was greater than 1000 nM; in assay [3] (read-out: S1P5 EC50 range), 1000 to 10000 nM.
For the compound `Cc1cc(C)cc(COc2ccc3c(c2)CCC(OCC(=O)O)C3)c1` (stereo not drawn) [Compound 156, 2-[6-[(3,5-dimethylphenyl)methoxy]tetralin-2-yl]oxyacetic acid], the EC50 in assay [1] (setting [4]) is greater than 1000 nM; in assay [2] (setting [5]) it was greater than 1000 nM; in assay [3] (read-out: S1P5 EC50 range), 1000 to 10000 nM.
